PubChem BioAssay (NCI)
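At the GI50, growth is halved. The concentration for full growth arrest is given as TGI.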

Assays:
Assay in all cases: NCI tumour cell line growth inhibition, 384-well format
CCRF-CEM leukemia = tested on: CCRF-CEM leukemia
HS 578T breast = tested on: HS 578T breast
RXF 393 renal = tested on: RXF 393 renal
A498 renal = tested on: A498 renal
SNB-75 CNS = tested on: SNB-75 CNS
TK-10 renal = tested on: TK-10 renal
HCC-2998 colon = tested on: HCC-2998 colon
SK-MEL-28 melanoma = tested on: SK-MEL-28 melanoma
SNB-19 CNS = tested on: SNB-19 CNS
K-562 leukemia = tested on: K-562 leukemia
NCI/ADR-RES ovarian = tested on: NCI/ADR-RES ovarian
SK-OV-3 ovarian = tested on: SK-OV-3 ovarian
OVCAR-3 ovarian = tested on: OVCAR-3 ovarian
UACC-257 melanoma = tested on: UACC-257 melanoma
MALME-3M melanoma = tested on: MALME-3M melanoma
M14 melanoma = tested on: M14 melanoma
U251 glioblastoma = tested on: U251 glioblastoma
UO-31 renal = tested on: UO-31 renal
786-0 renal = tested on: 786-0 renal
HCT-116 colon = tested on: HCT-116 colon
NCI-H322M lung = tested on: NCI-H322M lung
UACC-62 melanoma = tested on: UACC-62 melanoma
CAKI-1 renal = tested on: CAKI-1 renal
SR leukemia = tested on: SR leukemia
MCF7 breast = tested on: MCF7 breast
SN12C renal = tested on: SN12C renal
SW-620 colon = tested on: SW-620 colon
MDA-MB-468 breast = tested on: MDA-MB-468 breast
LOX IMVI melanoma = tested on: LOX IMVI melanoma
HOP-62 NSCLC = tested on: HOP-62 NSCLC
MDA-MB-231 breast = tested on: MDA-MB-231 breast
NCI-H460 NSCLC = tested on: NCI-H460 NSCLC
HOP-92 NSCLC = tested on: HOP-92 NSCLC
SK-MEL-5 melanoma = tested on: SK-MEL-5 melanoma
T-47D breast = tested on: T-47D breast
BT-549 breast = tested on: BT-549 breast
HL-60(TB) leukemia = tested on: HL-60(TB) leukemia
OVCAR-8 ovarian = tested on: OVCAR-8 ovarian
COLO 205 colon = tested on: COLO 205 colon
NCI-H522 lung = tested on: NCI-H522 lung
EKVX NSCLC = tested on: EKVX NSCLC
PC-3 prostate = tested on: PC-3 prostate
DU-145 prostate = tested on: DU-145 prostate
MDA-MB-435 melanoma = tested on: MDA-MB-435 melanoma
OVCAR-4 ovarian = tested on: OVCAR-4 ovarian
SF-268 CNS = tested on: SF-268 CNS
ACHN renal = tested on: ACHN renal
MOLT-4 leukemia = tested on: MOLT-4 leukemia
IGROV1 ovarian = tested on: IGROV1 ovarian
SF-539 CNS = tested on: SF-539 CNS
A549 NSCLC = tested on: A549 NSCLC
NCI-H23 lung = tested on: NCI-H23 lung
RPMI-8226 leukemia = tested on: RPMI-8226 leukemia
HCT-15 colon = tested on: HCT-15 colon
NCI-H226 lung = tested on: NCI-H226 lung

## COc1cc(OC)cc(N2CCN(C(=O)Nc3nc4cc(F)ccc4nc3OC)CC2)c1
CCRF-CEM leukemia
  GI50: 18.7 nM
  TGI: 33.3 nM
HS 578T breast
  GI50: 17 nM
  TGI: 35.6 nM
RXF 393 renal
  GI50: < 10 nM
  TGI: 21.9 nM
A498 renal
  GI50: < 10 nM
  TGI: 96.6 nM
SNB-75 CNS
  GI50: 23.4 nM
  TGI: 127 nM
TK-10 renal
  GI50: 57.1 nM
  TGI: 23100 nM
HCC-2998 colon
  GI50: 20.7 nM
  TGI: 76.9 nM
SK-MEL-28 melanoma
  GI50: 120 nM
  TGI: 22300 nM
SNB-19 CNS
  GI50: 36.3 nM
  TGI: 12800 nM
K-562 leukemia
  GI50: 17.4 nM
  TGI: 43.3 nM
NCI/ADR-RES ovarian
  GI50: 14 nM
  TGI: 32.1 nM
SK-OV-3 ovarian
  GI50: 35.1 nM
  TGI: 11700 nM
OVCAR-3 ovarian
  GI50: 12.1 nM
  TGI: 31.4 nM
UACC-257 melanoma
  GI50: 37.2 nM
  TGI: 20100 nM
MALME-3M melanoma
  GI50: 24.7 nM
  TGI: 14800 nM
M14 melanoma
  GI50: 15.7 nM
  TGI: 38.2 nM
U251 glioblastoma
  GI50: 32.7 nM
  TGI: 12100 nM
UO-31 renal
  GI50: 51.3 nM
  TGI: 18300 nM
786-0 renal
  GI50: 28.4 nM
  TGI: 267 nM
HCT-116 colon
  GI50: 31.2 nM
  TGI: 151 nM
NCI-H322M lung
  GI50: 64 nM
  TGI: 37600 nM
UACC-62 melanoma
  GI50: < 10 nM
  TGI: 15000 nM
CAKI-1 renal
  GI50: 15.8 nM
  TGI: 15100 nM
SR leukemia
  GI50: < 10 nM
MCF7 breast
  GI50: 26.2 nM
  TGI: 5570 nM
SN12C renal
  GI50: 28 nM
  TGI: 16200 nM
SW-620 colon
  GI50: 36.5 nM
  TGI: 18800 nM
MDA-MB-468 breast
  GI50: 16.1 nM
  TGI: 32.1 nM
LOX IMVI melanoma
  GI50: 39.8 nM
  TGI: 380 nM
HOP-62 NSCLC
  GI50: 21.8 nM
  TGI: 1700 nM
MDA-MB-231 breast
  GI50: 54.5 nM
  TGI: 84700 nM
NCI-H460 NSCLC
  GI50: 21.1 nM
  TGI: 48.7 nM
HOP-92 NSCLC
  GI50: 48.3 nM
  TGI: 15600 nM
SK-MEL-5 melanoma
  GI50: 13.1 nM
  TGI: 45.3 nM
T-47D breast
  GI50: 55.4 nM
  TGI: 19600 nM
BT-549 breast
  GI50: 23.7 nM
  TGI: 68.5 nM
HL-60(TB) leukemia
  GI50: 16.5 nM
  TGI: 30.6 nM
OVCAR-8 ovarian
  GI50: 27.6 nM
  TGI: 91.2 nM
COLO 205 colon
  GI50: 27.7 nM
  TGI: 84.8 nM
NCI-H522 lung
  GI50: < 10 nM
  TGI: 22 nM
EKVX NSCLC
  GI50: 27.5 nM
  TGI: 14600 nM
PC-3 prostate
  GI50: 25.4 nM
  TGI: 15200 nM
DU-145 prostate
  GI50: 34.7 nM
  TGI: 249 nM
MDA-MB-435 melanoma
  GI50: < 10 nM
  TGI: 21.2 nM
OVCAR-4 ovarian
  GI50: 314 nM
  TGI: 31700 nM
SF-268 CNS
  GI50: 30.4 nM
  TGI: 415 nM
ACHN renal
  GI50: 65.7 nM
  TGI: 20200 nM
MOLT-4 leukemia
  GI50: 18.2 nM
  TGI: 32.8 nM
IGROV1 ovarian
  GI50: 42.5 nM
  TGI: 15000 nM
SF-539 CNS
  GI50: 18.2 nM
  TGI: 49.5 nM
A549 NSCLC
  GI50: 38.2 nM
  TGI: 18500 nM
NCI-H23 lung
  GI50: 20.7 nM
  TGI: 55.4 nM
RPMI-8226 leukemia
  GI50: 17 nM
  TGI: 31.8 nM
HCT-15 colon
  GI50: 22.4 nM
  TGI: 1180 nM
NCI-H226 lung
  GI50: 18.6 nM
  TGI: 70.8 nM
